Assay results reported in patent publication US10285972B2, “Trans-2-nonadecyl-4-hydroxymethyl-1,3-dioxolane and producing methodthereof” (Greenyn Biotechnology Co., Ltd, priority 2014, dated 2019).

Columns and labels:
[1] = Body weight and food intake of mice fed 45% high-fat diet for 8 weeks; assay type: in vivo, C57BL/6 mice; settings: for Final wight: mean±SE
Experimental: (§1) The 4 weeks-old male C57BL/6 mice were divided into 5 groups and treated with different feeding conditions, wherein the group 1 was the blank control fed with normal diet and water, the group 2 was fed with 45% high-fat diet and water, the group 3 was fed with 45% high-fat diet, water and 10 mg/Kg the compound TNHD, the group 4 was fed with 45% high-fat diet, water and 20 mg/Kg the compound TNHD, and the group 5 was fed with 45% high-fat diet, water and 200 mg/Kg Silymarin. Feeding for 8 weeks, and then all the mice were sacrificed.
At the end of the experiment, taking photographs of the each group were shown as FIG. 4.
The body weight and food intake in the each group were recorded in the table 1, wherein the data is expressed as the mean±SE.

liver = assay: Organ weights, liver appearance and liver staining (H&E, Surius red) of mice fed 45% high-fat diet; assay type: in vivo, C57BL/6 mice; settings: for Liver weight: 8 weeks
Experimental: as §1
The weights of liver, kidney and spleen of the mice in the each group were measured and recorded in table 2. The macroscopic appearance of the liver from the mice of the each group was shown as FIG. 6. Furthermore, the liver collected from the sacrificed mice in each groups was fixed with formalin. After the fixation, the liver tissue of the each group was paraffin-embedded for histology section and stained by H&E and Surius red for analysis.

[2] = system: fatty liver and obesity animal model prepared by ethanol-containing diet (Lieber-DeCarli); assay: Fatty liver and obesity animal model prepared by ethanol-containing diet (Lieber-DeCarli); assay type: in vivo; settings: FIGS. 9 to 14

SMILES: CCCCCCCCCCCCCCCCCCC[C@@H]1OC[C@@H](CO)O1 (relative stereo) [TNHD, trans-2-nonadecyl-4-hydroxymethyl-1,3-dioxolane]
- Effect on body weight, high dose compared with low dose ([1]; 45% high-fat diet mice, 20 mg/Kg vs 10 mg/Kg): high dose is more effective
- Effect on body weight increase of obesity mouse ([1]; 45% high-fat diet mice, 10 or 20 mg/Kg, 8 weeks): prevent and inhibit the body weight of obesity mouse to increase
- Effect on weight loss compared with Silymarin ([1]; 45% high-fat diet mice, Silymarin 200 mg/Kg): more effective to weight loss than Silymarin
- Final wight ([1]; group 3: 45% high-fat diet + 10 mg/Kg TNHD, 8 weeks): 29.8 ± 2.0 g
- Final wight ([1]; group 4: 45% high-fat diet + 20 mg/Kg TNHD, 8 weeks): 28.1 ± 1.6 g
- Lipid accumulation in the liver (H&E and Surius red staining) (liver; 45% high-fat diet mice, FIGS. 7 and 8): inhibit the lipid accumulation in the liver effectively
- Liver weight (liver; group 3: 45% high-fat diet + 10 mg/Kg TNHD): 5.23 ± 0.84 g
- Macroscopic appearance of the liver (liver; group 3 or group 4 (10 or 20 mg/Kg), 45% high-fat diet, FIG. 6): the liver shows the red color and has smooth surface
- Liver weight (liver; group 4: 45% high-fat diet + 20 mg/Kg TNHD): 5.63 ± 0.61 g
- Effect on obesity, fatty liver or liver damage caused by alcohol [2]: effective to treat or/and prevent obesity, fatty liver or liver damage caused by alcohol
